Biological target: MAPK14 (human) (UniProt Q16539)
Assay: Inhibition of MAPK14 Kinase Activity

Sequence of MAPK14 (human) (Q16539 whole entry, looked up): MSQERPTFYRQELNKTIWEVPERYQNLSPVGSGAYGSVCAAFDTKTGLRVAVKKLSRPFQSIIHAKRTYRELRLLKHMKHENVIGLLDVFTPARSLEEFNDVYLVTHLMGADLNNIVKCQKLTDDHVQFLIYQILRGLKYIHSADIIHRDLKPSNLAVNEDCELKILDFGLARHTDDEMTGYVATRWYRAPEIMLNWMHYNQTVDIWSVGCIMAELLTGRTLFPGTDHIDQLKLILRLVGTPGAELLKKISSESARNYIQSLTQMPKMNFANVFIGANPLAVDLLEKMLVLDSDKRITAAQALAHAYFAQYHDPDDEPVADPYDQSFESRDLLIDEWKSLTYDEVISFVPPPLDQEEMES

Row | IC50 | Structure (SMILES)
1 | ≤ 1000 nM | N#Cc1cccc(Nc2c(C(N)=O)sc3c2ccc(=O)n3-c2ccccc2)c1
2 | ≤ 1000 nM | Cc1cc(F)ccc1Nc1c(C#N)sc2c1ccc(=O)n2-c1ccccc1
3 | ≤ 1000 nM | CCOC(=O)c1sc2c(ccc(=O)n2-c2ccccc2)c1Nc1cccc(Cl)c1C#N
4 | ≤ 1000 nM | CCOC(=O)c1sc2c(ccc(=O)n2-c2ccc([S+](C)[O-])cc2)c1Nc1ccccc1C#N (centres undefined)
5 | ≤ 1000 nM | Cc1cccc(Nc2c(C(N)=O)sc3c2ccc(=O)n3-c2ccc(F)cc2)c1
6 | ≤ 1000 nM | Cc1cccc(Nc2c(C(N)=O)sc3c2ccc(=O)n3-c2ccccc2)c1
7 | ≤ 1000 nM | O=C(NCCN1CCCCC1)c1sc2c(ccc(=O)n2-c2ccccc2)c1Nc1ccccc1
8 | ≤ 1000 nM | CCOC(=O)c1sc2c(ccc(=O)n2CC2CC2)c1Nc1ccc(F)cc1F
9 | ≤ 1000 nM | O=C(c1sc2c(ccc(=O)n2-c2ccccc2)c1Nc1ccccc1)N1CCCC1
10 | ≤ 1000 nM | CC(C)(O)CNC(=N)c1sc2c(ccc(=O)n2-c2ccccc2)c1Nc1ccc(F)cc1F
11 | ≤ 1000 nM | Cc1cccc(Nc2c(C#N)sc3c2ccc(=O)n3C2CC2)c1
12 | ≤ 1000 nM | N#Cc1sc2c(ccc(=O)n2-c2ccccc2)c1Nc1cccc(SC(F)(F)F)c1
13 | ≤ 1000 nM | CCOC(=O)c1sc2c(ccc(=O)n2-c2ccccc2)c1Nc1cc(C)ccc1C#N
14 | ≤ 1000 nM | CN(C)C(=O)c1sc2c(ccc(=O)n2-c2ccccc2)c1Nc1ccccc1
15 | ≤ 1000 nM | Cc1cccc(Nc2c(C(N)=O)sc3c2ccc(=O)n3-c2ccccc2C)c1
16 | ≤ 1000 nM | Cc1cc(Nc2c(C(N)=O)sc3c2ccc(=O)n3-c2ccccc2Cl)ccc1F
17 | ≤ 1000 nM | NS(=O)(=O)c1sc2c(ccc(=O)n2-c2ccccc2)c1Nc1ccc(F)cc1F
18 | ≤ 1000 nM | NC(=O)c1sc2c(ccc(=O)n2-c2ccccc2)c1Nc1ccccc1OC(F)F
19 | ≤ 1000 nM | CCN(CC)CCNC(=O)c1sc2c(ccc(=O)n2-c2ccccc2)c1Nc1ccccc1
20 | ≤ 1000 nM | CCOC(=O)c1sc2c(ccc(=O)n2CC2CC2)c1Nc1cccc(C)c1C#N
21 | ≤ 1000 nM | CC(C)(CO)NC(=O)c1sc2c(ccc(=O)n2-c2ccccc2)c1Nc1ccccc1
22 | ≤ 1000 nM | Cc1ccc(-n2c(=O)ccc3c(Nc4cccc(C)c4)c(C(N)=O)sc32)cc1
23 | ≤ 1000 nM | Cc1cccc(Nc2c(C#N)sc3c2ccc(=O)n3-c2ccccc2)c1
24 | ≤ 1000 nM | NC(=O)c1sc2c(ccc(=O)n2-c2ccccc2)c1Nc1cc(Cl)cc(Cl)c1
25 | ≤ 1000 nM | NC(=O)c1sc2c(ccc(=O)n2CC2CC2)c1Nc1ccc(F)cc1F
26 | ≤ 1000 nM | CCOC(=O)c1sc2c(c(C)cc(=O)n2-c2ccccc2)c1Nc1ccccc1

Row | IC50 | Structure (SMILES)
27 | ≤ 1000 nM | CCOC(=O)c1sc2c(ccc(=O)n2-c2ccc([S+](C)[O-])cc2)c1Nc1ccccc1 (centres undefined)
28 | ≤ 1000 nM | N#Cc1sc2c(ccc(=O)n2-c2ccccc2)c1Nc1ccccc1O
29 | ≤ 1000 nM | Cc1nccn1CCOc1ccc(-n2c(=O)ccc3c(Nc4ccc(F)cc4F)c(C(N)=O)sc32)cc1
30 | ≤ 1000 nM | CCOC(=O)c1sc2c(ccc(=O)n2-c2ccc(SC)cc2)c1Nc1cccc(C)c1
31 | ≤ 1000 nM | CCc1cccc(Nc2c(C(N)=O)sc3c2ccc(=O)n3-c2ccccc2)c1
32 | ≤ 1000 nM | N#Cc1sc2c(ccc(=O)n2-c2ccccc2)c1Nc1ccc(F)c(Cl)c1
33 | ≤ 1000 nM | NC(=O)c1sc2c(ccc(=O)n2-c2ccccc2[N+](=O)[O-])c1Nc1ccc(F)cc1F
34 | ≤ 1000 nM | NC(=O)c1sc2c(ccc(=O)n2-c2ccccc2)c1Nc1cccc(C(F)(F)F)c1
35 | ≤ 1000 nM | CCOC(=O)c1sc2c(ccc(=O)n2-c2cccc(C)c2)c1Nc1ccc(F)c(C)c1
36 | ≤ 1000 nM | CCOC(=O)c1sc2c(ccc(=O)n2-c2ccccc2)c1Nc1cccc(C)c1
37 | ≤ 1000 nM | CCOC(=O)c1sc2c(ccc(=O)n2-c2ccc(S(C)(=O)=O)cc2)c1Nc1cccc(C)c1
38 | ≤ 1000 nM | CN(C)c1ccc(-n2c(=O)ccc3c(Nc4ccccc4)c(C(=O)N4CCCC4)sc32)cc1
39 | ≤ 1000 nM | NC(=O)c1sc2c(ccc(=O)n2-c2cccnc2)c1Nc1ccccc1
40 | ≤ 1000 nM | CCOC(=O)c1sc2c(ccc(=O)n2-c2ccc(OCCn3ccnc3C)cc2)c1Nc1ccc(F)cc1F
41 | ≤ 1000 nM | Cc1cccc(Nc2c(C(N)=O)sc3c2ccc(=O)n3-c2ccccc2Cl)c1
42 | ≤ 1000 nM | Cc1cc(Nc2c(C#N)sc3c2ccc(=O)n3-c2ccccc2)ccc1F
43 | ≤ 1000 nM | O=C(O)c1sc2c(ccc(=O)n2-c2ccccc2)c1Nc1ccccc1
44 | ≤ 1000 nM | CCc1cccc(Nc2c(C#N)sc3c2ccc(=O)n3-c2ccccc2)c1
45 | ≤ 1000 nM | Cc1ccc(Nc2c(C(N)=O)sc3c2ccc(=O)n3CC2CC2)cc1C
46 | ≤ 1000 nM | CCOC(=O)c1sc2c(ccc(=O)n2-c2ccc(Cl)cc2)c1Nc1ccc(F)c(C)c1
47 | ≤ 1000 nM | Cc1ccccc1-n1c(=O)ccc2c(Nc3ccc(F)cc3F)c(C(N)=O)sc21
48 | ≤ 1000 nM | CN1CCN(CCCNC(=O)c2sc3c(ccc(=O)n3-c3ccccc3)c2Nc2ccccc2)CC1
49 | ≤ 1000 nM | N#Cc1ccccc1Nc1c(C(N)=O)sc2c1ccc(=O)n2-c1ccc(F)cc1
50 | ≤ 1000 nM | CCOC(=O)c1sc2c(ccc(=O)n2-c2ccc3c(ccn3S(C)(=O)=O)c2)c1Nc1ccccc1C#N
51 | ≤ 1000 nM | N#Cc1sc2c(ccc(=O)n2-c2ccccc2)c1Nc1c(F)cccc1F
52 | ≤ 1000 nM | CN(C)c1ccc(-n2c(=O)ccc3c(Nc4ccccc4)c(C(=O)NCCN4CCCCC4)sc32)cc1

Row | IC50 | Structure (SMILES)
53 | ≤ 1000 nM | CCOC(=O)c1sc2c(ccc(=O)n2-c2cccc(C)c2)c1Nc1cccc(C)c1
54 | ≤ 1000 nM | N#Cc1sc2c(ccc(=O)n2-c2ccccc2)c1Nc1ccccc1OC(F)F
55 | ≤ 1000 nM | CCNC(=O)c1sc2c(ccc(=O)n2-c2ccccc2)c1Nc1ccccc1
56 | ≤ 1000 nM | N#Cc1sc2c(ccc(=O)n2CC2CC2)c1Nc1ccc(F)c(Cl)c1
57 | ≤ 1000 nM | CCOC(=O)c1sc2c(ccc(=O)n2-c2ccccc2)c1Nc1ccccc1Cl
58 | ≤ 1000 nM | Cc1cccc(Nc2c(C(=N)N)sc3c2ccc(=O)n3-c2ccccc2)c1
59 | ≤ 1000 nM | NC(=O)c1sc2c(ccc(=O)n2-c2ccccc2)c1Nc1cccc(Cl)n1
60 | ≤ 1000 nM | CCOC(=O)c1sc2c(ccc(=O)n2-c2ccc(SC)cc2)c1Nc1ccccc1C#N
61 | ≤ 1000 nM | CCN(CC)C(=O)c1sc2c(ccc(=O)n2-c2ccccc2)c1Nc1ccccc1
62 | ≤ 1000 nM | Cc1cccc(Nc2c(C(N)=O)sc3c2ccc(=O)n3C2CC2)c1
63 | ≤ 1000 nM | NC(=O)c1sc2c(ccc(=O)n2-c2ccccc2)c1Nc1ccc(F)cc1F
64 | ≤ 1000 nM | Cc1cccc(Nc2c(C(N)=O)sc3c2ccc(=O)n3-c2ccc(F)cc2)c1C#N
65 | ≤ 1000 nM | NC(=O)c1sc2c(ccc(=O)n2-c2ccccc2)c1Nc1ccccc1O
66 | ≤ 1000 nM | Cc1cc(Nc2c(C#N)sc3c2ccc(=O)n3C2CC2)ccc1F
67 | ≤ 1000 nM | NC(=O)c1sc2c(ccc(=O)n2CC2CC2)c1Nc1cccc(Br)c1
68 | ≤ 1000 nM | O=C(NCCN1CCCCC1)c1sc2c(ccc(=O)n2CC2CC2)c1Nc1ccccc1
69 | ≤ 1000 nM | NC(=O)c1sc2c(ccc(=O)n2-c2ccccc2)c1Nc1cccc(OC(F)(F)F)c1
70 | ≤ 1000 nM | CCOC(=O)c1sc2c(ccc(=O)n2-c2ccccc2[N+](=O)[O-])c1Nc1ccc(F)cc1F
71 | ≤ 1000 nM | CCOC(=O)c1sc2c(ccc(=O)n2-c2ccccc2)c1Nc1ccc(F)cc1F
72 | ≤ 1000 nM | NC(=O)c1sc2c(ccc(=O)n2-c2ccccc2)c1Nc1ccccc1Cl
73 | ≤ 1000 nM | O=C(c1sc2c(ccc(=O)n2-c2ccccc2)c1Nc1ccc(F)cc1F)N1CCCC1
74 | ≤ 1000 nM | CCOC(=O)c1sc2c(ccc(=O)n2-c2ccccc2)c1Nc1ccccc1
75 | ≤ 1000 nM | CON(C)C(=O)c1sc2c(ccc(=O)n2-c2ccccc2)c1Nc1ccc(F)cc1F
76 | ≤ 1000 nM | NC(=O)c1sc2c(ccc(=O)n2-c2ccc(C(O)CO)cc2)c1Nc1ccccc1 (centres undefined)
77 | ≤ 1000 nM | CCOC(=O)c1sc2c(ccc(=O)n2-c2ccc(F)cc2)c1Nc1cccc(C)c1C#N
78 | ≤ 1000 nM | N#Cc1sc2c(ccc(=O)n2-c2ccccc2)c1Nc1cccc(Cl)n1

Row | IC50 | Structure (SMILES)
79 | ≤ 1000 nM | NC(=O)c1sc2c(ccc(=O)n2-c2ccsc2)c1Nc1ccccc1
80 | ≤ 1000 nM | Cc1cc(Nc2c(C(N)=O)sc3c2ccc(=O)n3-c2ccc(F)cc2)ccc1F
81 | ≤ 1000 nM | N#Cc1sc2c(ccc(=O)n2-c2ccccc2Cl)c1Nc1ccccc1
82 | ≤ 1000 nM | CCOC(=O)c1sc2c(ccc(=O)n2Cc2ccccc2)c1Nc1ccccc1
83 | ≤ 1000 nM | Cc1cc(Nc2c(C(N)=O)sc3c2ccc(=O)n3C2CC2)ccc1F
84 | ≤ 1000 nM | NC(=O)c1sc2c(ccc(=O)n2-c2ccccc2)c1Nc1ccc(F)c(Cl)c1
85 | ≤ 1000 nM | NC(=O)c1sc2c(ccc(=O)n2-c2ccccc2)c1Nc1cccc(SC(F)(F)F)c1
86 | ≤ 1000 nM | O=C(c1sc2c(ccc(=O)n2-c2ccccc2)c1Nc1cccc(Cl)c1)N1CCCC1
87 | ≤ 1000 nM | CNC(=O)c1sc2c(ccc(=O)n2-c2ccccc2)c1Nc1ccccc1
88 | ≤ 1000 nM | CCOC(=O)c1sc2c(ccc(=O)n2CC2CC2)c1Nc1cccc(Br)c1
89 | ≤ 1000 nM | CCOC(=O)c1sc2c(ccc(=O)n2-c2ccccc2)c1Nc1ccccc1C#N
90 | ≤ 1000 nM | Cc1ccccc1-n1c(=O)ccc2c(Nc3ccc(F)cc3F)c(C#N)sc21
91 | ≤ 1000 nM | CCOC(=O)c1sc2c(ccc(=O)n2-c2ccccc2)c1Nc1cccc(C#N)c1
92 | ≤ 1000 nM | O=C(NCCN1CCOCC1)c1sc2c(ccc(=O)n2-c2ccccc2)c1Nc1ccccc1
93 | ≤ 1000 nM | Cc1cc(Nc2c(C(N)=O)sc3c2ccc(=O)n3CC2CC2)ccc1F
94 | ≤ 1000 nM | CCOC(=O)c1sc2c(ccc(=O)n2-c2ccsc2)c1Nc1ccccc1C#N
95 | ≤ 1000 nM | CCOC(=O)c1sc2c(ccc(=O)n2-c2ccc(C(O)CO)cc2)c1Nc1ccccc1 (centres undefined)
96 | ≤ 1000 nM | CCOC(=O)c1sc2c(ccc(=O)n2-c2ccc(CN3CCCC3)cc2)c1Nc1ccccc1
97 | ≤ 1000 nM | N#Cc1ccccc1Nc1c(C(N)=O)sc2c1ccc(=O)n2-c1ccc2[nH]ccc2c1
98 | ≤ 1000 nM | CON(C)C(=O)c1sc2c(ccc(=O)n2CC2CC2)c1Nc1ccccc1
99 | ≤ 1000 nM | CCOC(=O)c1sc2c(ccc(=O)n2-c2ccccc2)c1Nc1ccc(C#N)c(Cl)c1
100 | ≤ 1000 nM | C=Cc1ccc(-n2c(=O)ccc3c(Nc4ccccc4)c(C(=O)OCC)sc32)cc1
101 | ≤ 1000 nM | Cc1ccc(Nc2c(C#N)sc3c2ccc(=O)n3-c2ccccc2)cc1Br
102 | ≤ 1000 nM | Cc1ccccc1Nc1c(C#N)sc2c1ccc(=O)n2-c1ccccc1
103 | ≤ 1000 nM | CCOC(=O)c1sc2c(ccc(=O)n2-c2ccccc2)c1Nc1ccc(Cl)cc1
104 | ≤ 1000 nM | Cc1cccc(Nc2c(C#N)sc3c2ccc(=O)n3-c2ccccc2Cl)c1

Reference: the Kinase Knowledgebase extract (Sharma et al. 2016)
